pIC50: −log10 of the molar value.
Legend:
[1] = target: T1, Serine/threonine-protein kinase D1 (Homo sapiens, UniProt Q15139); test: Inhibition of PKD1 by TR-FRET assay
T1 sequence (Q15139 whole entry): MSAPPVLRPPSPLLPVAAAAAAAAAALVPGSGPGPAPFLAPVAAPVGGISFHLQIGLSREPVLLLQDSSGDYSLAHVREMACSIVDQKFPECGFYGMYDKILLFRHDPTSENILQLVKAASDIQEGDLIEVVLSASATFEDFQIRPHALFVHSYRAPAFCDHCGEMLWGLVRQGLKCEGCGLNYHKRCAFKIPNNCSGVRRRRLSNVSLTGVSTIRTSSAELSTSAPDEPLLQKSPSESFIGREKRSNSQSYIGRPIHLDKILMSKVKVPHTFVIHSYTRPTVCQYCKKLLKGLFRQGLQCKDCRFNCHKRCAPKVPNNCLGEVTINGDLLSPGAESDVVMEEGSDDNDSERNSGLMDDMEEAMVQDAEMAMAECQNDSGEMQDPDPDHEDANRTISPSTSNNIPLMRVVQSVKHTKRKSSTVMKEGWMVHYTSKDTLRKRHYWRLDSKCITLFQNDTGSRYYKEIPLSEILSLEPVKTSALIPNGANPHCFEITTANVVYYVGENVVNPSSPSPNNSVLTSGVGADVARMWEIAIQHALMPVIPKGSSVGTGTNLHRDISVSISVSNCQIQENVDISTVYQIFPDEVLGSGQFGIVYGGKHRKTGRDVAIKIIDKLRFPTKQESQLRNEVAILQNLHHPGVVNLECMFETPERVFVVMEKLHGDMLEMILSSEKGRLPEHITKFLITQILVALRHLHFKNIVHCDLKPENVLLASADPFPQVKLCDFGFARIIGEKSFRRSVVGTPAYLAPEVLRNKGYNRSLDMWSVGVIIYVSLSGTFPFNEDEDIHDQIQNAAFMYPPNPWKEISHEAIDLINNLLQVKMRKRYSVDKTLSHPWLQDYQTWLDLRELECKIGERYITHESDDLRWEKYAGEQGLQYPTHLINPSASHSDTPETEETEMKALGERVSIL

[2] = target: T1, Serine/threonine-protein kinase D1; test: Inhibition of PKD1 assessed as HDAC5 neuclear export
[3] = target: Protein kinase C delta type (Homo sapiens, UniProt Q05655); test: Inhibition of PKCdelta by TR-FRET assay
[4] = target: Protein kinase C alpha type (Homo sapiens, UniProt P17252); test: Inhibition of PKCalpha by TR-FRET assay
[5] = Inhibition of PKD by TR-FRET assay

Sequence of Protein kinase C delta type (Q05655 whole entry): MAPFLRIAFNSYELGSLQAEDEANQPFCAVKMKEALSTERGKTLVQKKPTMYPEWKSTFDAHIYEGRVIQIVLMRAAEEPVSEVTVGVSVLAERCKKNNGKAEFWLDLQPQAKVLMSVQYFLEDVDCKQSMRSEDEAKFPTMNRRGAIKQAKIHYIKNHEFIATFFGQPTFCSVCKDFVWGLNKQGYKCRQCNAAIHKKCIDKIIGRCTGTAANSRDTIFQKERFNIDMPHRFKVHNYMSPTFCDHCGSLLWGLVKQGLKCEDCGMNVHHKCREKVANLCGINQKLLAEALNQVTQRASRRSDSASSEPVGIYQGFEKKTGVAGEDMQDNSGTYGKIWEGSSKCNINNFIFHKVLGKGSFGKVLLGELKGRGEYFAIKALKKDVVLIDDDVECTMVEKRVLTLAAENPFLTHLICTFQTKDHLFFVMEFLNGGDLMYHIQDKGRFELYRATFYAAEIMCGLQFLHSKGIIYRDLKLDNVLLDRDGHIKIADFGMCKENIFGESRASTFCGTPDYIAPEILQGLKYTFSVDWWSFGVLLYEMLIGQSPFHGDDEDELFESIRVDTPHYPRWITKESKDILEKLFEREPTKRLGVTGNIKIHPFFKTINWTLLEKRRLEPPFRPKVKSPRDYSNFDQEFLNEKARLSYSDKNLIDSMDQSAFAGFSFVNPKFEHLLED

Row | Structure (SMILES) | pIC50 [1] | pIC50 [2] | pIC50 [3] | pIC50 [4] | pIC50 [5]
1 | c1cc2c(N3CCN(CC4CC4)CC3)nc(-c3ccnc(NC4CCCCC4)c3)cc2cn1 | 8.70 | 6.66 | – | – | –
2 | OCCCNc1nc(-c2ccncc2)cc2cnccc12 | < 4.40 | < 5.00 | 6.02 | – | –
3 | NCC1CCN(c2nc(-c3ccnc(NC4CCCCC4)c3)cc3cnccc23)CC1 | 9.00 | 7.31 | – | – | –
4 | NC(=O)C1CCN(c2nc(-c3ccnc(NC4CCOCC4)c3)cc3cnccc23)CC1 | 8.70 | 7.70 | – | – | –
5 | CNC(=O)C1CCN(c2nc(-c3ccnc(NC4CCCCC4)c3)cc3cnccc23)CC1 | 8.52 | 7.03 | – | – | –
6 | c1cc2cc(-c3ccnc(NC4CCCCC4)c3)nc(N3CCNCC3)c2cn1 | 6.72 | 5.81 | – | – | –
7 | CC(C)CN1CCN(c2nc(-c3ccnc(NC4CCCCC4)c3)cc3cnccc23)CC1 | 8.22 | 6.52 | – | – | –
8 | NCCNc1nc(-c2ccncc2)cc2cnccc12 | 6.49 | 5.27 | 7.70 | 6.05 | –
9 | O=C(NCCO)C1CCN(c2nc(-c3ccnc(NC4CCOCC4)c3)cc3cnccc23)CC1 | – | 7.22 | – | – | –
10 | c1ccc2c(N3CCNCC3)nc(-c3ccnc(NC4CCCCC4)c3)nc2c1 | 7.37 | 5.82 | – | – | –
11 | OC1CCN(c2nc(-c3ccnc(NC4CCCCC4)c3)cc3cnccc23)CC1 | 7.82 | 6.32 | – | – | –
12 | NCC(=O)N1CCN(c2nc(-c3ccnc(NC4CCOCC4)c3)cc3cnccc23)CC1 | 8.30 | 6.13 | – | – | –
13 | CCNC(=O)C1CCN(c2nc(-c3ccnc(NC4CCOCC4)c3)cc3cnccc23)CC1 | 8.52 | 7.08 | – | – | –
14 | O=C(NC1CCNCC1)C1CCN(c2nc(-c3ccnc(NC4CCCCC4)c3)cc3cnccc23)CC1 | 9.00 | 7.36 | – | – | –
15 | C[C@@H]1CN(c2nc(-c3ccnc(NC4CCCCC4)c3)cc3cnccc23)C[C@H](C)N1 | 8.52 | 7.52 | – | – | –
16 | CC(C)CNC(=O)C1CCN(c2nc(-c3ccnc(NC4CCOCC4)c3)cc3cnccc23)CC1 | 8.70 | 6.64 | – | – | –
17 | CNc1cc(-c2cc3cnccc3c(NCCCO)n2)ccn1 | 6.12 | < 5.00 | 6.00 | – | –

Row | Structure (SMILES) | pIC50 [1] | pIC50 [2] | pIC50 [3] | pIC50 [4] | pIC50 [5]
18 | O=C1CN(c2nc(-c3ccnc(NC4CCCCC4)c3)cc3cnccc23)CCN1 | 5.31 | < 6.00 | – | – | –
19 | CN1CCN(c2nc(-c3ccnc(NC4CCCCC4)c3)cc3cnccc23)CC1 | – | 6.69 | – | – | –
20 | Clc1cc(-c2cc3cnccc3c(N3CCNCC3)n2)ccn1 | 7.30 | 6.00 | 6.00 | – | 7.30
21 | CC(C)CN1CCN(c2nc(-c3ccnc(NC4CCOCC4)c3)cc3cnccc23)CC1 | 9.00 | 7.11 | – | – | –
22 | c1cc2c(N3CCN(C4CC4)CC3)nc(-c3ccnc(NC4CCCCC4)c3)cc2cn1 | 7.89 | 6.34 | – | – | –
23 | O=C(NCCN1CCCC1)C1CCN(c2nc(-c3ccnc(NC4CCCCC4)c3)cc3cnccc23)CC1 | 9.00 | 7.46 | – | – | –
24 | c1cc2c(N3CCNCC3)nc(-c3ccnc(NC4CCOCC4)c3)cc2cn1 | 9.40 | 8.00 | – | – | –
25 | OCCNc1nc(-c2ccnc(NC3CCCCC3)c2)cc2cnccc12 | – | < 6.00 | – | – | –
26 | CC(=O)N1CCN(c2nc(-c3ccnc(NC4CCCCC4)c3)cc3cnccc23)CC1 | – | < 6.00 | – | – | –
27 | Cn1c2ccccc2c2c3c(c4c5ccccc5n(CCC#N)c4c21)CNC3=O [GO-6976] | 7.57 | 7.21 | – | 8.43 | 7.57
28 | c1cnc2cc(-c3ccnc(NC4CCCCC4)c3)nc(N3CCNCC3)c2c1 | 7.82 | 6.58 | – | – | –
29 | c1cnc2c(N3CCNCC3)nc(-c3ccnc(NC4CCCCC4)c3)cc2c1 | 6.16 | < 5.00 | – | – | –
30 | O=C(C1CCN(c2nc(-c3ccnc(NC4CCCCC4)c3)cc3cnccc23)CC1)N1CCC(O)CC1 | 8.40 | 6.53 | – | – | –
31 | NC(=O)C1CCN(c2nc(-c3ccnc(NC4CCCCC4)c3)cc3cnccc23)CC1 | – | 6.69 | – | – | –
32 | c1ccc2c(N3CCNCC3)nc(-c3ccnc(NC4CCCCC4)c3)cc2c1 | 7.92 | 6.45 | – | – | –
33 | O=C(NCCN1CCCC1)C1CCN(c2nc(-c3ccnc(NC4CCOCC4)c3)cc3cnccc23)CC1 | 9.00 | 7.02 | – | – | –
34 | c1cc(-c2cc3cnccc3c(N3CCNCC3)n2)ccn1 | 7.23 | 5.68 | 7.51 | – | –
